Assay results published in patent publication US20230382926A1, “COMPOUNDS AND USES THEREOF” (The University of The West Indies, priority 2022, published 2023).

Test system: K. pneumoniae 7225
Test: Lethal peritonitis infection model (survival)
Assay type: in vivo, Swiss albino mice
Details: for Survival in lethal K. pneumoniae infection: each 10 mg kg^−1 s.c.
Protocol: For both lethal and non-lethal infection models involving Carbapenem resistant Klebsiella pneumoniae suitable strains, number of mice per treatment and bacterial infection dose were predetermined in preliminary experiments.
For the lethal peritonitis infections, mice were treated as in the non-lethal infection studies except the inoculation dose was 2×10^7 CFU mL^−1 K. pneumoniae 7225. The mice were then divided into the previously listed treatment regimens and treatment was provided every 24 h for two days after infection. Mice were monitored for mortality for 7 days and the moribund mice were euthanized humanely using cervical dislocation.
For survival experiments, Swiss albino mice were given lethal doses of K. pneumoniae 7225 (C) (2×10^7 CFU ml^−1) via i.p. injection. Mice were treated the same as in the non-lethal peritonitis experiments and mortality was monitored for 7 days. Data lines represent the percent of mice (n=10 mice per treatment group) that survived daily. […]

`Oc1ccc(C(c2c[nH]c3cnccc23)c2c[nH]c3cnccc23)cc1` [SP-6azaBIM 136, 4-(bis(1H-pyrrolo[2,3-c]pyridin-3-yl)methyl)phenol] was tested, and the “Protection to lethal infections” value (SP-azaBIM 136 on its own) was “nor provide any protection to lethal infections”, the “Survival in lethal K. pneumoniae infection” value (co-treatment with Ciprofloxacin, 7 days) was 100% and the “Survival in lethal K. pneumoniae infection” value (co-treatment with Meropenem, 7 days) was 90%. The “Mortality in lethal K. pneumoniae infection” value (monotherapy 10 mg kg^−1 s.c., 2×10^7 CFU ml^−1 i.p., 7 days) was 100%.
